The text below walks through data of PubChem BioAssay AID342 (DTP/NCI, 2004).

Several values for one entry are separate records, joined by “and”; a condition that tells them apart may be missing. Equal values may be shown once. Square brackets hold non-standard residues; d marks the D form. Peptide text beside a SMILES is read from it. ξ: configuration not given here. Ac5c = NC1(C(=O)O)CCCC1; ξS = NC(CO)C(=O)O

For orientation: T/C means the result in the treated group divided by that in the control group, in per cent.

The assay concerns Swiss mice, Sarcoma 180 sc, mean tumor weight T/C. In words: NCI In Vivo Anticancer Drug Screen. Data for tumor model Sarcoma 180 (subcutaneous) in Swiss mice. Particulars: endpoint: mean tumor weight, higher = larger tumour. The essentials: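 Tumor-bearing mice, transplantable tumor; readout survival or tumor size; result = T/C, treated vs vehicle control.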
The mark [1] stands for this setting: dose: 15.0 mg/kg/injection, schedule: Q01DX007 (ip), vehicle: carboxymethylcellulose (CMC).
[2] abbreviates: dose: 25.0 mg/kg/injection, schedule: Q#A X014 (ip), vehicle: carboxymethylcellulose (CMC).
The mark [3] stands for this setting: dose: 100.0 mg/kg/injection, schedule: Q01DX007 (ip), vehicle: water.
[4] abbreviates: dose: 12.0 mg/kg/injection, schedule: Q01DX007 (ip), vehicle: carboxymethylcellulose (CMC).

On to `CC(C)CC(C)(C[N+](=O)[O-])C[N+](=O)[O-]`, for which the T/C (dose: 4.0 mg/kg/injection, schedule: Q01DX007 (ip), vehicle: saline) was 93 % of control.

`Cc1ccc(N=NN(C)C)cc1`: the T/C runs as follows: (dose: 9.8 mg/kg/injection, schedule: Q01DX007 (ip), vehicle: carboxymethylcellulose (CMC)) 86 % of control; (dose: 14.8 mg/kg/injection, schedule: Q01DX007 (ip), vehicle: carboxymethylcellulose (CMC)) 70 % of control; under setting [1], 62 % of control; (dose: 16.65 mg/kg/injection, schedule: Q#A X014 (ip), vehicle: carboxymethylcellulose (CMC)) 45 % of control; (dose: 22.2 mg/kg/injection, schedule: Q01DX007 (ip), vehicle: carboxymethylcellulose (CMC)) 49 % of control; under setting [2], 43 % of control. Further, the T/C by setting is: (dose: 33.3 mg/kg/injection, schedule: Q01DX007 (ip), vehicle: carboxymethylcellulose (CMC)) 60 % of control; (dose: 37.5 mg/kg/injection, schedule: Q#A X014 (ip), vehicle: carboxymethylcellulose (CMC)) 30 % of control; (dose: 56.0 mg/kg/injection, schedule: Q#A X014 (ip), vehicle: carboxymethylcellulose (CMC)) 14 % of control; (dose: 56.25 mg/kg/injection, schedule: Q#A X014 (ip), vehicle: methylcellulose (MC)) 36 % of control and 38 % of control; (dose: 115.0 mg/kg/injection, schedule: Q01DX007 (ip), vehicle: carboxymethylcellulose (CMC)) 34 % of control.

As for `CCOC(=O)C(CO)NC(=O)C1(NC(C)=O)CCCC1` (configuration not stated) (Ac-[Ac5c]-[ξS]-OEt), the T/C reads like this: (dose: 66.0 mg/kg/injection, schedule: Q01DX007 (ip), vehicle: water) 97 % of control; under setting [3], 94 % of control; (dose: 150.0 mg/kg/injection, schedule: Q01DX007 (ip), vehicle: water) 83 % of control; (dose: 225.0 mg/kg/injection, schedule: Q01DX007 (ip), vehicle: water) 74 % of control.

For `C[C@@H]1C[C@@]2(C)[C@@H](CC[C@@H]3[C@@H]2CC[C@]2(C)[C@@H](O)CC[C@@H]32)CC1=O`, the T/C by setting is: (dose: 25.0 mg/kg/injection, schedule: Q#A X014 (oral), vehicle: steriod suspending solution) 120 % of control; (dose: 75.0 mg/kg/injection, schedule: Q#A X014 (oral), vehicle: steriod suspending solution) 75 % of control; (dose: 187.5 mg/kg/injection, schedule: Q#A X014 (oral), vehicle: steriod suspending solution) 63 % of control.

As to `CCCCCCCCCCCCCCCCCC1=NCCN1CCN`, the T/C was 74 % of control and 84 % of control (dose: 22.0 mg/kg/injection, schedule: Q#A X014 (ip), vehicle: saline); 33 % of control (dose: 50.0 mg/kg/injection, schedule: Q#A X014 (ip), vehicle: saline).

Consider `Nc1ncnc2[nH]ncc12`, for which the T/C (dose: 0.55 mg/kg/injection, schedule: Q#A X014 (ip), vehicle: carboxymethylcellulose (CMC)) was 74 % of control; the T/C (dose: 1.1 mg/kg/injection, schedule: Q#A X014 (ip), vehicle: carboxymethylcellulose (CMC)) is 79 % of control; the T/C (dose: 2.2 mg/kg/injection, schedule: Q#A X014 (ip), vehicle: carboxymethylcellulose (CMC)) is 76 % of control; the T/C (dose: 4.4 mg/kg/injection, schedule: Q#A X014 (ip), vehicle: carboxymethylcellulose (CMC)) was 87 % of control.

Consider `[N-]=[N+]=[N-]`, for which the T/C (dose: 1.5 mg/kg/injection, schedule: Q01DX007 (ip), vehicle: carboxymethylcellulose (CMC)) was 88 % of control; the T/C (dose: 3.0 mg/kg/injection, schedule: Q01DX007 (ip), vehicle: carboxymethylcellulose (CMC)) was 61 % of control; the T/C (dose: 6.0 mg/kg/injection, schedule: Q01DX007 (ip), vehicle: carboxymethylcellulose (CMC)) is 76 % of control; the T/C under setting [4] is 69 % of control.

As for `CCCOc1ccc2c(c1)CC[C@@H]1[C@@H]2CC[C@@]2(C)[C@H]1CC[C@]2(C)O`, the T/C is, setting by setting: (dose: 0.5 mg/kg/injection, schedule: Q#A X014 (sc), vehicle: steriod suspending solution) 110 % of control; (dose: 5.0 mg/kg/injection, schedule: Q#A X014 (sc), vehicle: steriod suspending solution) 63 % of control; (dose: 50.0 mg/kg/injection, schedule: Q#A X014 (sc), vehicle: steriod suspending solution) 84 % of control.

Consider `OC(CBr)C(O)C(O)C(O)CBr` (configuration not stated), for which the T/C (dose: 25.0 mg/kg/injection, schedule: Q01DX007 (ip), vehicle: saline) is 106 % of control; the T/C (dose: 50.0 mg/kg/injection, schedule: Q01DX007 (ip), vehicle: saline) is 95 % of control and 117 % of control; the T/C (dose: 100.0 mg/kg/injection, schedule: Q01DX007 (ip), vehicle: saline) was 104 % of control and 107 % of control; the T/C (dose: 400.0 mg/kg/injection, schedule: Q01DX007 (ip), vehicle: saline) is 88 % of control.

`CN(N=O)C(N)=O`: the T/C by setting is: (dose: 1.4 mg/kg/injection, schedule: Q#A X014 (ip), vehicle: carboxymethylcellulose (CMC)) 45 % of control; (dose: 1.5 mg/kg/injection, schedule: Q#A X014 (ip), vehicle: carboxymethylcellulose (CMC)) 63 % of control; (dose: 2.81 mg/kg/injection, schedule: Q#A X014 (ip), vehicle: carboxymethylcellulose (CMC)) 53 % of control; (dose: 3.0 mg/kg/injection, schedule: Q#A X014 (ip), vehicle: carboxymethylcellulose (CMC)) 73 % of control; (dose: 5.62 mg/kg/injection, schedule: Q#A X014 (ip), vehicle: carboxymethylcellulose (CMC)) 27 % of control; (dose: 6.0 mg/kg/injection, schedule: Q#A X014 (ip), vehicle: carboxymethylcellulose (CMC)) 41 % of control. The T/C was 67 % of control (dose: 7.5 mg/kg/injection, schedule: Q01DX007 (ip), vehicle: carboxymethylcellulose (CMC)); 65 % of control (dose: 9.6 mg/kg/injection, schedule: Q01DX007 (ip), vehicle: carboxymethylcellulose (CMC)); 73 % of control (dose: 11.25 mg/kg/injection, schedule: Q01DX007 (ip), vehicle: carboxymethylcellulose (CMC)); 49 % of control under setting [4]; 35 % of control (dose: 12.0 mg/kg/injection, schedule: Q#A X014 (ip), vehicle: carboxymethylcellulose (CMC)); 30 % of control under setting [1]. Moreover, the T/C runs as follows: (dose: 16.0 mg/kg/injection, schedule: Q01DX007 (ip), vehicle: carboxymethylcellulose (CMC)) 51 % of control; (dose: 22.5 mg/kg/injection, schedule: Q01DX007 (ip), vehicle: carboxymethylcellulose (CMC)) 14 % of control; (dose: 24.0 mg/kg/injection, schedule: Q01DX007 (ip), vehicle: carboxymethylcellulose (CMC)) 31 % of control.

For the compound `CNCCc1ccccc1`, under “dose: 110.0 mg/kg/injection, schedule: Q01DX007 (ip), vehicle: saline”, the T/C is 77 % of control.

For the compound `Nc1ncnc2c1ccn2C1OC(CO)C(O)C1O` (configuration not stated), under “dose: 0.62 mg/kg/injection, schedule: Q#A X014 (ip), vehicle: carboxymethylcellulose (CMC)”, the T/C was 90 % of control.

For the compound `CO[C@H]1CC[C@@]2(C)C(=CC[C@H]3[C@@H]4C[C@H](O)C[C@@]4(C)CC[C@@H]32)C1`, the T/C was 105 % of control (dose: 2.5 mg/kg/injection, schedule: Q01DX007 (sc), vehicle: steriod suspending solution) and 80 % of control (dose: 5.0 mg/kg/injection, schedule: Q01DX007 (sc), vehicle: steriod suspending solution).

For `O=C1CN(/N=C\c2ccc([N+](=O)[O-])o2)C(=O)N1`, the T/C runs as follows: (dose: 6.25 mg/kg/injection, schedule: Q#A X014 (ip), vehicle: carboxymethylcellulose (CMC)) 91 % of control; (dose: 12.5 mg/kg/injection, schedule: Q#A X014 (ip), vehicle: carboxymethylcellulose (CMC)) 94 % of control; (dose: 15.5 mg/kg/injection, schedule: Q01DX007 (ip), vehicle: carboxymethylcellulose (CMC)) 106 % of control; (dose: 21.0 mg/kg/injection, schedule: Q01DX007 (ip), vehicle: carboxymethylcellulose (CMC)) 92 % of control; under setting [2], 97 % of control; (dose: 42.0 mg/kg/injection, schedule: Q01DX007 (ip), vehicle: carboxymethylcellulose (CMC)) 88 % of control. Moreover, the T/C (dose: 50.0 mg/kg/injection, schedule: Q#A X014 (ip), vehicle: carboxymethylcellulose (CMC)) is 27 % of control and the T/C (dose: 84.0 mg/kg/injection, schedule: Q01DX007 (ip), vehicle: carboxymethylcellulose (CMC)) is 103 % of control.

As for `CC1=NCCc2c1cc1c([nH]c3ccccc31)c2C`, the T/C is, setting by setting: (dose: 25.0 mg/kg/injection, schedule: Q01DX007 (ip), vehicle: water) 108 % of control; (dose: 50.0 mg/kg/injection, schedule: Q01DX007 (ip), vehicle: water) 91 % of control; under setting [3], 72 % of control; (dose: 200.0 mg/kg/injection, schedule: Q01DX007 (ip), vehicle: water) 28 % of control.
